Like-named read-outs stand apart in the source and are kept apart here.
Columns and labels:
prostate cancer cells = assay: Sensitivity of prostate cancer cells to CCI-779; assay type: cell-based; details: some prostate cancer cells, data not shown
PSA [1] = system: PSA
PSA [2] = details: LNCaP cells, 10 nM DHT, mRNA frequency
FKBP54 [3] = assay: Western blot analysis of FKBP54 protein in LNCaP cells; assay type: cell-based, human
Protocol: For Western blot analysis, LNCaP cells were plated in 6-well plate at 1×10^6 cells/well in charcoal stripped serum containing medium. Cells were treated with 10 nM DHT and harvested at designated time. Cells were harvested in MPER reagent (Pierce, Rockford, Ill.) containing 400 mM NaCl. […] The PVDF membrane was incubated in TBST (TBS with 0.1% Tween-20) with 3% milk for 15 minutes before the addition of the first antibody, rabbit anti-FKBP54 (Affinity Bioreagents, Inc). After overnight incubation, the PVDF membrane was washed 3 times with TBST and incubated with a second antibody, anti-rabbit-IgG coupled with horseradish peroxidase (Transduction Labs) for one hour. The PVDF membrane was then washed 3 times with TBST and protein was detected by using an enhanced chemiluminescence detection system (Pierce).

FKBP54 [4] = details: LNCaP cells, 10 nM DHT, mRNA frequency
Protocol: (§1) Human prostatic cancer cell lines LNCaP, DU-145, PC-3, and Tsu-prl were obtained from ATCC. LNCaP cancer cells were maintained in humidified atmosphere of 5% CO2 in air in RPMI 1640 medium supplemented with 10% fetal calf serum (Life Technologies, Inc, Rockville, Md.), 3 mM L-glutamine, 100 μg/ml streptomycin and 100 units/ml penicillin. Other lines were maintained in DMEM containing 3 mM L-glutamine, 100 μg/ml streptomycin, 100 units/ml penicillin, and 10% FCS in humidified atmosphere of 5% CO2. To examine the effects of steroids, cells were cultured in RPMI 1640 medium containing 5% FCS treated with dextran coated charcoal (Hyclone, Logan, Utah) for 24 hs before treatment. Cells were grown in the absence or presence of 10 nM DHT for 0, 2, 4, 6, 12, 24, 48, and 72 hs. They were collected and frozen at each time point. Two hundred μl of medium were collected from each flask for PSA assay.

LNCaP cells = details: MTT assay, FIG. 1A
Protocol: as §1
To verify the effect of DHT on the growth of LNCaP cells, cells at 3,000 cells/well were plated in 96-well plates for 24 hs before treatment with DHT. After 72 hs, MTT was added to each well and incubated at 37° C. for four hs. At the end of incubation, the supernatant was removed and 100 μl DMSO was added to each well to dissolve […]. Plates were subsequently read in a plate reader at […].

androgen receptor (AR) = assay: Transient transfection of COS-1 cells, GREe1bLuc luciferase reporter of AR transcriptional activity; assay type: cell-based; details: COS-1 cells transfected with FKBP54 expression vector
Protocol: Bars represent the mean of at least three independent experiments±SD. To determine the effect of FKBP54 on the transcriptional activity of androgen receptor (AR), COS-1 cells were transiently transfected with a reporter construct containing androgen receptor response element along with an expression vector encoding FKBP54. […] The next morning, medium were replaced with 2-ml DMEM. Indicated amount of DNA in 100 μl of DMEM was mixed with 6 μl of PLUS reagent (Gibco) and incubated at room temperature while 4 μl of lipofectamine was mixed with 100 μl of DMEM. […] After incubation with DNA for 4 hours, 2 ml of phenol red-free DMEM containing 10% charcoal-stripped fetal bovine serum was added and cells treated with indicated chemicals for additional 24 hours before being harvested. Luciferase activity was determined using Promega's STEADY GLO™ Luciferase Assay System.

CO[C@H]1C[C@@H]2CC[C@@H](C)[C@@](O)(O2)C(=O)C(=O)N2CCCC[C@H]2C(=O)O[C@H]([C@H](C)C[C@@H]2CC[C@@H](OC(=O)C(C)(CO)CO)[C@H](OC)C2)CC(=O)[C@H](C)/C=C(\C)[C@@H](O)[C@@H](OC)C(=O)[C@H](C)C[C@H](C)/C=C/C=C/C=C/1C [CCI-779]
sensitivity of prostate cancer cells (prostate cancer cells): sensitive

C[C@]12CCC(=O)C[C@@H]1CC[C@@H]1[C@@H]2CC[C@]2(C)[C@@H](O)CC[C@@H]12 [DHT, dihydrotestosterone]
PSA production (PSA [1]): increased in a dose-dependent manner | time at which PSA signal was first detected (PSA [1]): 12 h | time of maximal PSA level (PSA [1]): about 48 hs | PSA expression increase relative to control (PSA [2]; 12 hours): 3 fold | PSA expression increase relative to control (PSA [2]; 72 hours): approximately 4 fold | FKBP54 protein expression (Western blot, blot not shown) (FKBP54 [3]): upregulated the FKB54 expression in a time-dependent manner | increase in level of FKBP54 expression (FKBP54 [3]; 24 hours post exposure): approximately two-fold | increase in level of FKBP54 expression (FKBP54 [3]; 72 hours post exposure): approximately 4 fold | Quantitative Expression Levels of FKBP54 (band density values) (FKBP54 [3]; time 0 hr): 8.5 | Quantitative Expression Levels of FKBP54 (band density values) (FKBP54 [3]; time 2 hr): 9.0 | Quantitative Expression Levels of FKBP54 (band density values) (FKBP54 [3]; time 6 hr): 9.8 | Quantitative Expression Levels of FKBP54 (band density values) (FKBP54 [3]; time 12 hr): 8.0 | Quantitative Expression Levels of FKBP54 (band density values) (FKBP54 [3]; time 24 hr): 12.0 | Quantitative Expression Levels of FKBP54 (band density values) (FKBP54 [3]; time 48 hr): 23.0 | Quantitative Expression Levels of FKBP54 (band density values) (FKBP54 [3]; time 72 hr): 30.2 | FKBP54 expression induction relative to baseline (FKBP54 [4]; 6 hours): 2 fold | FKBP54 expression induction relative to baseline (peak) (FKBP54 [4]; 24 hours): approximately 4 fold | growth of LNCaP cells (LNCaP cells): stimulated by a natural androgen DHT in a dose-dependent manner

C[C@]1(O)CC[C@H]2[C@@H]3CCC4=CC(=O)CCC4=C3C=C[C@@]21C [R1881]
FKBP54 protein expression (Western blot, blot not shown) (FKBP54 [3]): could also upregulate the FKBP54 expression | increase in level of FKBP54 expression (FKBP54 [3]; 24 hours post exposure): ~10 fold | increase in level of FKBP54 expression (FKBP54 [3]; 72 hours post exposure): approximately 30 fold | Quantitative Expression Levels of FKBP54 (band density values) (FKBP54 [3]; time 0 hr): 1.8 | Quantitative Expression Levels of FKBP54 (band density values) (FKBP54 [3]; time 2 hr): 5.3 | Quantitative Expression Levels of FKBP54 (band density values) (FKBP54 [3]; time 6 hr): 5.9 | Quantitative Expression Levels of FKBP54 (band density values) (FKBP54 [3]; time 12 hr): 5.0 | Quantitative Expression Levels of FKBP54 (band density values) (FKBP54 [3]; time 24 hr): 20.1 | Quantitative Expression Levels of FKBP54 (band density values) (FKBP54 [3]; time 48 hr): 27.2 | Quantitative Expression Levels of FKBP54 (band density values) (FKBP54 [3]; time 72 hr): 34.4

B1: FKBP54: member of the immunophilin family, FK binding protein; transfected as expression vector encoding FKBP54 (protein, UniProt Q13451 1-457, looked up)
Peptidyl-prolyl cis-trans …: MTTDEGAKNNEESPTATVAEQGEDITSKKDRGVLKIVKRVGNGEETPMIGDKVYVHYKGKLSNGKKFDSSHDRNEPFVFSLGKGQVIKAWDIGVATMKKGEICHLLCKPEYAYGSAGSLPKIPSNATLFFEIELLDFKGEDLFEDGGIIRRTKRKGEGYSNPNEGATVEIHLEGRCGGRMFDCRDVAFTVGEGEDHDIPIGIDKALEKMQREEQCILYLGPRYGFGEAGKPKFGIEPNAELIYEVTLKSFEKAKESWEMDTKEKLEQAAIVKEKGTVYFKGGKYMQAVIQYGKIVSWLEMEYGLSEKESKASESFLLAAFLNLAMCYLKLREYTKAVECCDKALGLDSANEKGLYRRGEAQLLMNEFESAKGDFEKVLEVNPQNKAARLQISMCQKKAKEHNERDRRIYANMFKKFAEQDAKEEANKAMGKKTSEGVTNEKGTDSQAMEEEKPEGHV
increase of AR activity (androgen receptor (AR); in the presence of androgen (10^-9 M R1881)): more than 30% | effect on the reporter activity (androgen receptor (AR); without androgen): no effect
